According to patent US20240336574A1 (LATIGO BIOTHERAPEUTICS, INC., priority 2021, published 2024):

Experiments:
[1] = biological target: T1, recombinant human NaV1.8 stably transfected HEK cells (Homo sapiens, UniProt Q9Y5Y9); assay: Compound profiling on NaV1.8, human NaV1.8 cell line, SyncroPatch384PE automated patch clamp assay (Example 115, third set of compounds, Table 27); type: cell-based; details: human NaV1.8 HEK cells, Table 27 (third set of compounds)
T1 construct: expressed in transfected cells; host or cells: HEK cells, stably transfected
Protocol: Compound Profiling on NaV1.8 Human NaV1.8 Cell Line SyncroPatch384PE Assay
Compounds were tested on recombinant human NaV1.8 stably transfected HEK cells using the SyncroPatch384PE system, an automated patch clamp device. Cells were cultured at 37° C./5% CO2 in DMEM medium supplemented with GlutaMAX I, NEAA 1%, FBS 10% and seeded in T175 flasks. Cells were cultured at 30° C. one day prior to recording sodium currents. On the day of the recordings, cells were detached with 0.05% Trypsin-EDTA, resuspended in serum free DMEM medium and placed into the SyncroPatch384PE 6° C. pre-cooled cell hotel and shaken at 200 rpm. Intracellular solution (IC) contained, in mM: 10, CsCl; 110, CsF; 20, EGTA; 10, HEPES. Extracellular solution (EC) contained, in mM: 140, NaCl; 4, KCl; 5, Glucose; 10, HEPES; 2, CaCl2; 1, MgCl2. Washing solution contained, in mM: 40, NMDG; 100, NaCl; 4, KCl; 10, Glucose; 10, HEPES; 5, CaCl2; 1, MgCl2.
Compounds were tested in quadruplicates in 0.1% DMSO and 0.030% Pluronic Acid. Compounds were diluted 1:3.33 in EC solution to create a 10-point concentration response curve, spanning a final concentration range from 10-0.0002 μM in the assay plate. Compounds with low nM potency were retested using a lower concentration range (1-0.00002 μM). Each plate contained tetracaine and another tool compound as positive controls. Up to 7 compounds were tested on one plate. 150 μM tetracaine and 0.1% DMSO were used as high and low controls, respectively.
Whole cell patch clamp recordings were conducted according to Nanion's standard procedure for SyncroPatch384PE®. Cells were held at a holding potential of −120 mV. A depolarization step to 10 mV for 30 ms was applied (P1 measurement), followed by a hyperpolarization step to −100 mV for 100 ms. An inactivation step at −40 mV for 10 sec was applied before stepping to −100 mV for 20 ms, followed by a step to 10 mV for 30 ms (P2 measurement) and then back to −100 mV for 30 ms. Sweep interval was 15 sec with a sampling rate of 10 kHz. Following establishment of the whole-cell configuration in EC, two washing steps with reference buffer were performed to stabilize the baseline. Compounds were then applied by the SynchroPatch into each well and the current was recorded for five minutes in EC, followed by application of tetracaine to achieve full block at the end of the experiment. The potency of the compounds was assessed on two read-outs, resting state block (P1 measurement) or inactivated state block (P2 measurement) to obtain IC50 values. Values were normalized to high (tetracaine) and low (DMSO) controls.

[2] = biological target: T1, recombinant human NaV1.8 stably transfected HEK cells; assay: Compound profiling on NaV1.8, human NaV1.8 cell line, SyncroPatch384PE automated patch clamp assay (Example 102, first set of compounds, Table 16); type: cell-based; details: human NaV1.8 HEK cells, Table 16 (first set of compounds)
Method in brief: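 Automated whole-cell patch clamp on HEK cells precultured at 30 °C one day before recording; CsF-based internal, 140 mM NaCl external. 10-point curve, 20–0.001 μM final, 0.1% DMSO, 5 min exposure. IC50 for resting (P1, −120 mV hold) and inactivated (P2, after 10 s at −40 mV) block, normalized to 250 μM tetracaine and DMSO.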

[3] = inactivated state block (P2 measurement), read-out: P2 IC50
[4] = resting state block (P1 measurement), read-out: P1 IC50
[5] = inactivated state block (P2 measurement), read-out: P2IC50
[6] = resting state block (P1 measurement), read-out: P1IC50

T1 sequence (Q9Y5Y9 whole entry): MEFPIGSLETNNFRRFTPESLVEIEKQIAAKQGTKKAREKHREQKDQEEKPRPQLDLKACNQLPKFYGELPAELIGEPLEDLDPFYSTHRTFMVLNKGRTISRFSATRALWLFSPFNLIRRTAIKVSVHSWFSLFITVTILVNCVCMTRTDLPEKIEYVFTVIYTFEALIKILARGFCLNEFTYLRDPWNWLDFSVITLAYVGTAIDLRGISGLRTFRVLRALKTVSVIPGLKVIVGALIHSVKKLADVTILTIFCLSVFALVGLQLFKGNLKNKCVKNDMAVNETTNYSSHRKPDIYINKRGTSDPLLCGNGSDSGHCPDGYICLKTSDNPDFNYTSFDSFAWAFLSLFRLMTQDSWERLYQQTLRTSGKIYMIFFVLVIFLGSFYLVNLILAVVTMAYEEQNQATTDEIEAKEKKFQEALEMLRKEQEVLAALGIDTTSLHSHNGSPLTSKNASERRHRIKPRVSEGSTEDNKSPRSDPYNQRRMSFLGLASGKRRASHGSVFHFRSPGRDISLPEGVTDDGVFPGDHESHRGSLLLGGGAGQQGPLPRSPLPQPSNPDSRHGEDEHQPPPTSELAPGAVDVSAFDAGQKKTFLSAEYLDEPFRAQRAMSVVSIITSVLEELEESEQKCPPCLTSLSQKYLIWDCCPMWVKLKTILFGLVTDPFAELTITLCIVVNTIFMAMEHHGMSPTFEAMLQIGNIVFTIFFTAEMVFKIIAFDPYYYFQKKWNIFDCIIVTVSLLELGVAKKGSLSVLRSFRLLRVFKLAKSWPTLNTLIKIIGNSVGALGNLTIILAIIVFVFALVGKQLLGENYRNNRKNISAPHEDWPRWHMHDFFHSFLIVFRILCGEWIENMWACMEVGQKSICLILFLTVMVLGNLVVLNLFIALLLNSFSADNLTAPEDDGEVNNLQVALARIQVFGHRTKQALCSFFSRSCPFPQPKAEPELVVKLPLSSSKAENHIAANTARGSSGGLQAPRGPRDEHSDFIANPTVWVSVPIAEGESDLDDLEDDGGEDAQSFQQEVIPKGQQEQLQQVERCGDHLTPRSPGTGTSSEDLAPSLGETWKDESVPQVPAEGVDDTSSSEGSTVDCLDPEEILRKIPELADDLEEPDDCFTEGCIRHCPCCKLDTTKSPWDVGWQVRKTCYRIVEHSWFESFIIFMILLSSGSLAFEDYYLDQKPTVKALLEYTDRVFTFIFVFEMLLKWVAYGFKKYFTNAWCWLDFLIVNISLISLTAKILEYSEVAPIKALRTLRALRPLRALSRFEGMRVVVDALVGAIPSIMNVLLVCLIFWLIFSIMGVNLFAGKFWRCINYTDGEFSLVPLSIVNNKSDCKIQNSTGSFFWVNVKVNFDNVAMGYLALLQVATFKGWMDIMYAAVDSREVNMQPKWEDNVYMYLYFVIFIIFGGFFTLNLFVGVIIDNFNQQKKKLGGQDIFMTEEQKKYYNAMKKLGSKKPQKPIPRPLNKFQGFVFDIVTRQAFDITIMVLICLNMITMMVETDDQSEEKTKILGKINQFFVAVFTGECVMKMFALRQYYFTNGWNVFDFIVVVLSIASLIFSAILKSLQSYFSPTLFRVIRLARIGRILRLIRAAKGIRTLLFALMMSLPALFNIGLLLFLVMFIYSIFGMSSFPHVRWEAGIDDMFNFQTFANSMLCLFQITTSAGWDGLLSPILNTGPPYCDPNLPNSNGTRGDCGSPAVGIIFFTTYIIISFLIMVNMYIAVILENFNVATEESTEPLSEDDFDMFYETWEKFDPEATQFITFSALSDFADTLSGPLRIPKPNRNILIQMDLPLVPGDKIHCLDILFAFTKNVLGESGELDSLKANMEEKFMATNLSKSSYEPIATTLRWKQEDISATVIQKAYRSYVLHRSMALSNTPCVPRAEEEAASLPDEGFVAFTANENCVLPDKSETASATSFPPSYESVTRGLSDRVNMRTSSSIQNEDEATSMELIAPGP

| Compound | IC50 [1, 3] [µM] | IC50 [1, 4] [µM] | IC50 [2, 5] [µM] | IC50 [2, 6] [µM] |
| --- | --- | --- | --- | --- |
| Cc1cc(F)ccc1Oc1nnc(C(F)(F)F)cc1C(=O)Nc1ccn2nnnc2c1 [Compound 135, 3-(4-Fluoro-2-methylphenoxy)-N-(tetrazolo[1,5-a]pyridin-7-yl)-6-(trifluoromethyl)pyridazine-4-carboxamide] | 0.501 to 1 | ≤ 0.2 |  |  |
| CS(=O)(=O)c1cccc(NC(=O)c2cc(C(F)(F)F)nnc2Oc2ccc(F)cc2O)c1 [Compound 130, 3-(4-Fluoro-2-hydroxyphenoxy)-N-(3-(methylsulfonyl)phenyl)-6-(trifluoromethyl)pyridazine-4-carboxamide] | 1 to 5 | > 5 |  |  |
| Cc1cc(F)ccc1Oc1nnc(C(F)(F)F)cc1C(=O)Nc1ccc(S(C)(=O)=O)cc1 [Compound 40] | > 5 | 1 to 5 |  |  |
| Cc1ccc(F)cc1Oc1nnc(C(F)(F)F)cc1C(=O)Nc1cccc(S(C)(=O)=O)c1 [Compound 70] | 0.501 to 1 | 0.501 to 1 |  |  |
| CCOc1cc(F)ccc1Oc1nnc(C)cc1C(=O)Nc1cccc(S(C)(=O)=O)c1 [Compound 108] | > 5 | > 5 |  |  |
| Cc1cc(F)ccc1Oc1nnc(C(F)(F)F)cc1C(=O)Nc1cccc(NS(C)(=O)=O)c1 [Compound 8] | 1 to 5 | 1 to 5 |  |  |
| COc1cc(F)ccc1Oc1nnc(C(F)(F)F)cc1C(=O)Nc1cc(C#N)cnn1 [Compound 56] | > 5 | > 5 |  |  |
| COc1cc(F)ccc1Oc1nnc(C(F)(F)F)cc1C(=O)Nc1cncc(C(N)=O)n1 [Compound 128, N-(6-Carbamoylpyrazin-2-yl)-3-(4-fluoro-2-methoxyphenoxy)-6-(trifluoromethyl)pyridazine-4-carboxamide] | > 5 | > 5 |  |  |
| COc1cc(F)ccc1Oc1nnc(C(F)(F)F)cc1C(=O)Nc1cccc(NS(C)(=O)=O)c1 [Compound 18] | 0.501 to 1 | 1 to 5 |  |  |
| COc1cc(F)ccc1Oc1nnc(C(F)(F)F)cc1C(=O)Nc1cccc(-n2ncnc2C)c1 [Compound 36] | 0.501 to 1 | 0.201 to 0.5 |  |  |
| COc1cc(F)ccc1Oc1nnc(C(F)(F)F)cc1C(=O)Nc1cnnc(C#N)c1 [Compound 55] | 1 to 5 | 1 to 5 |  |  |
| Cc1cc(F)ccc1Oc1nnc(C(F)(F)F)cc1C(=O)Nc1cc[nH]c(=O)c1C [Compound 91, 3-(4-Fluoro-2-methylphenoxy)-N-(3-methyl-2-oxo-1,2-dihydropyridin-4-yl)-6-(trifluoromethyl)pyridazine-4-carboxamide] | > 5 | > 5 |  |  |
| CSc1cccc(NC(=O)c2cc(C(F)(F)F)nnc2Oc2cc(F)ccc2Cl)c1 [Compound 111] | > 5 | > 5 |  |  |
| CS(=O)(=O)c1ccc(F)c(NC(=O)c2cc(C(F)(F)F)nnc2Oc2cc(F)ccc2Cl)c1 [Compound 74] | 0.501 to 1 | ≤ 0.2 |  |  |
| COc1cc(NC(=O)c2cc(C(F)(F)F)nnc2Oc2ccc(F)cc2Cl)ccn1 [Compound 67] | > 5 | > 5 |  |  |
| COc1cc(F)ccc1Oc1nnc(C(F)(F)F)cc1C(=O)Nc1cc(S(C)(=O)=O)ccc1F [Compound 23] | 0.201 to 0.5 | 0.201 to 0.5 |  |  |
| Cc1cc(F)ccc1Oc1nnc(C(F)(F)F)cc1C(=O)Nc1ccc(S(N)(=O)=O)cc1 [Compound 48] | 1 to 5 | 0.501 to 1 |  |  |
| O=C(Nc1ccc[n+]([O-])c1)c1cc(C(F)(F)F)nnc1Oc1ccc(F)cc1F [Compound 60, 3-(3-(2,4-Difluorophenoxy)-6-(trifluoromethyl)pyridazine-4-carboxamido) pyridine 1-oxide] | 1 to 5 | 1 to 5 |  |  |
| Cc1cc(F)ccc1Oc1nnc(C(F)(F)F)cc1C(=O)Nc1cccc2nncn12 [Compound 134, 3-(4-Fluoro-2-methyl-phenoxy)-N-([1,2,4]triazolo[4,3-a]pyridin-5-yl)-6-(trifluoromethyl)pyridazine-4-carboxamide] | > 5 | > 5 |  |  |
| CSc1ccc(NC(=O)c2cc(C(F)(F)F)nnc2Oc2ccc(F)cc2C)cc1 [Compound 32] | > 5 | > 5 |  |  |
| COc1cc(F)ccc1Oc1nnc(C(F)(F)F)cc1C(=O)Nc1cccc(-c2nncn2C)c1 [Compound 38] | 1 to 5 | 1 to 5 |  |  |
| CC(C)Oc1ccc(Oc2ncc(C(F)(F)F)cc2C(=O)Nc2ccc(C(N)=O)cc2)c(F)c1 [Compound 1710] |  |  | 0.2 to 0.5 | 0.2 to 0.5 |
| COc1cc(C#N)ccc1Oc1nc(C(F)(F)F)nc(C)c1C(=O)Nc1cccc(S(C)(=N)=O)c1 (centres unmarked) [Compound 1743, 4-(4-cyano-2-methoxy-phenoxy)-6-methyl-N-[3-(methylsulfonimidoyl)phenyl]-2-(trifluoromethyl)pyrimidine-5-carboxamide] |  |  | ≤ 0.02 | ≤ 0.02 |

Results, then the compound that gave them:

| IC50 [1, 3] [µM] | IC50 [1, 4] [µM] | IC50 [2, 5] [µM] | IC50 [2, 6] [µM] | Compound |
| --- | --- | --- | --- | --- |
| ≤ 0.2 | ≤ 0.2 |  |  | COc1cc(F)ccc1Oc1nnc(C(F)(F)F)cc1C(=O)Nc1ccc(C)c(S(C)(=O)=O)c1 [Compound 107, 3-(4-Fluoro-2-methoxyphenoxy)-N-(4-methyl-3-(methylsulfonyl)phenyl)-6-(trifluoromethyl)pyridazine-4-carboxamide] |
| 0.201 to 0.5 | 0.201 to 0.5 |  |  | Cc1cc(F)ccc1Oc1nnc(C(F)(F)F)cc1C(=O)Nc1ccc(C)c(S(C)(=O)=O)c1 [Compound 106, 3-(4-Fluoro-2-methylphenoxy)-N-(4-methyl-3-(methylsulfonyl)phenyl)-6-(trifluoromethyl)pyridazine-4-carboxamide] |
| ≤ 0.2 | ≤ 0.2 |  |  | Cc1cc(C#N)ccc1Oc1nnc(C(F)(F)F)cc1C(=O)Nc1cccc(S(C)(=N)=O)c1 (centres unmarked) [Compound 114, 3-(4-Cyano-2-methylphenoxy)-N-(3-(S-methylsulfonimidoyl)phenyl)-6-(trifluoromethyl)pyridazine-4-carboxamide] |
| ≤ 0.2 | ≤ 0.2 |  |  | COc1cc(F)ccc1Oc1nnc(C(F)(F)F)cc1C(=O)Nc1cccc(S(=O)(=O)C2CC2)c1 [Compound 25] |
| ≤ 0.2 | ≤ 0.2 |  |  | Cc1cc(F)ccc1Oc1nnc(C(F)(F)F)cc1C(=O)Nc1cccc(S(N)(=O)=O)c1 [Compound 51] |
| 0.201 to 0.5 | 0.201 to 0.5 |  |  | COc1ccc(F)cc1Oc1nnc(C(F)(F)F)cc1C(=O)Nc1cccc(S(C)(=N)=O)c1 (centres unmarked) [Compound 116] |
| ≤ 0.2 | ≤ 0.2 |  |  | Cc1cc(C(F)(F)F)ccc1Oc1nnc(C(F)(F)F)cc1C(=O)Nc1cccc(S(C)(=O)=O)c1 [Compound 42] |
| 0.201 to 0.5 | > 5 |  |  | Cc1cc(F)ccc1Oc1nnc(C(F)(F)F)cc1C(=O)Nc1cccc([S@@](C)(=N)=O)c1 [Compound 103, (S)-3-(4-fluoro-2-methylphenoxy)-N-(3-(S-methylsulfonimidoyl)phenyl)-6-(trifluoromethyl)pyridazine-4-carboxamide] |
| ≤ 0.2 | ≤ 0.2 |  |  | COc1cc(F)ccc1Oc1nnc(C(F)(F)F)cc1C(=O)Nc1cccc(S(N)(=O)=O)c1 [Compound 39] |
| ≤ 0.2 | ≤ 0.2 |  |  | Cc1cc(Br)ccc1Oc1nnc(C(F)(F)F)cc1C(=O)Nc1cccc(S(C)(=N)=O)c1 (centres unmarked) [Compound 117, 3-(4-Bromo-2-methylphenoxy)-N-(3-(S-methylsulfonimidoyl)phenyl)-6-(trifluoromethyl)pyridazine-4-carboxamide] |
| ≤ 0.2 | ≤ 0.2 |  |  | CS(=O)(=O)c1ccc(F)c(NC(=O)c2cc(C(F)(F)F)nnc2Oc2ccc(F)cc2Cl)c1 [Compound 72] |
